{"source": "ChEMBL document CHEMBL1201862", "about": "“PubChem BioAssay data set” (2004)", "key": {"[1]": {"target": "T1, Apoptotic protease-activating factor 1 (Homo sapiens, UniProt O14727)", "T1 sequence (O14727 whole entry)": "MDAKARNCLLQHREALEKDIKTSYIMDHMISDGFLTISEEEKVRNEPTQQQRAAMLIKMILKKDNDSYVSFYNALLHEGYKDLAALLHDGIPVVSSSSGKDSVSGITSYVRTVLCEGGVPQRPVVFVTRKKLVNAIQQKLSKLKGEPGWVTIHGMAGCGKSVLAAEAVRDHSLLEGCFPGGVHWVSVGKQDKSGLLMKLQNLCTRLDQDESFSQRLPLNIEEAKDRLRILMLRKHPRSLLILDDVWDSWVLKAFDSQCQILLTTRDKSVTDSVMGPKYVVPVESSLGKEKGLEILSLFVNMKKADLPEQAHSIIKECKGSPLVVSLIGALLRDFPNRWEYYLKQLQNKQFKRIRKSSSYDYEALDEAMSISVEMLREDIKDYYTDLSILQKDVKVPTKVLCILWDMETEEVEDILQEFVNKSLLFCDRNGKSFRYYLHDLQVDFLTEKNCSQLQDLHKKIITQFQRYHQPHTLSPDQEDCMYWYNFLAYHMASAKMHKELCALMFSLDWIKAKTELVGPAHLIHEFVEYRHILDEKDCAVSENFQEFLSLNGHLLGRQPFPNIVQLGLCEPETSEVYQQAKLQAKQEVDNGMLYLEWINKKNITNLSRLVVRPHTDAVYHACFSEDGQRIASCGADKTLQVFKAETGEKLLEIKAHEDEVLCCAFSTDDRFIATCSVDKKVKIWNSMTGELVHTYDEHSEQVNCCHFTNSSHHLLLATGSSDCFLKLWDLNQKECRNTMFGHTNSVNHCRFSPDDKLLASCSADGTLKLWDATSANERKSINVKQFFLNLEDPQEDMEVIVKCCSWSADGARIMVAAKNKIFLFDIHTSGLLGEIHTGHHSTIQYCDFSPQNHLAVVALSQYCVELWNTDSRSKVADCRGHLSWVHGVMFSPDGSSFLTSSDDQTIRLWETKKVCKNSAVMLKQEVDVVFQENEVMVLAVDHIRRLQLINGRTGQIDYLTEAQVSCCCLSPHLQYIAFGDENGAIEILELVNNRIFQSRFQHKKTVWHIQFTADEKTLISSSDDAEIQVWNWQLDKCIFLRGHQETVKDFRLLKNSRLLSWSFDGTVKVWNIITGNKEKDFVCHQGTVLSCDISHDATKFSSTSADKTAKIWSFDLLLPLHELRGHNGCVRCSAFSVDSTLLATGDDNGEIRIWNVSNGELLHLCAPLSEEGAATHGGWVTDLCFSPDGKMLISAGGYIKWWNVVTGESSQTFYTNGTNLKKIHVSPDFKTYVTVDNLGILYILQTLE", "assay": "SAR analysis of small molecule Activators of Apaf-1 in a Fluorescent assay.", "assay_type": "functional", "settings": "read-out: EC50_Mean"}, "Aurora kinase A": {"target": "Aurora kinase A (Homo sapiens, UniProt O14965)", "sequence (O14965 whole entry)": "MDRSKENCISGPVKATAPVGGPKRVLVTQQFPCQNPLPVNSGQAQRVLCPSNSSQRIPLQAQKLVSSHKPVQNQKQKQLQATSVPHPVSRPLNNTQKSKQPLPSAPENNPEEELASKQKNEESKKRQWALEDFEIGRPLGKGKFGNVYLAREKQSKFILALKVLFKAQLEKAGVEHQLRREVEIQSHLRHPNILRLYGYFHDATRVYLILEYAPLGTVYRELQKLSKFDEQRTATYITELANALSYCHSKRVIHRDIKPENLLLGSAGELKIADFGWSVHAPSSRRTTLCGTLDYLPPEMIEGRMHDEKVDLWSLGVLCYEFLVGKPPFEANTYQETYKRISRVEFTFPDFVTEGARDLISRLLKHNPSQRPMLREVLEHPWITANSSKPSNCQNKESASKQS", "assay_type": "functional"}, "[2]": {"target": "Vascular endothelial growth factor receptor 2 (Homo sapiens, UniProt P35968)", "sequence (P35968 whole entry)": "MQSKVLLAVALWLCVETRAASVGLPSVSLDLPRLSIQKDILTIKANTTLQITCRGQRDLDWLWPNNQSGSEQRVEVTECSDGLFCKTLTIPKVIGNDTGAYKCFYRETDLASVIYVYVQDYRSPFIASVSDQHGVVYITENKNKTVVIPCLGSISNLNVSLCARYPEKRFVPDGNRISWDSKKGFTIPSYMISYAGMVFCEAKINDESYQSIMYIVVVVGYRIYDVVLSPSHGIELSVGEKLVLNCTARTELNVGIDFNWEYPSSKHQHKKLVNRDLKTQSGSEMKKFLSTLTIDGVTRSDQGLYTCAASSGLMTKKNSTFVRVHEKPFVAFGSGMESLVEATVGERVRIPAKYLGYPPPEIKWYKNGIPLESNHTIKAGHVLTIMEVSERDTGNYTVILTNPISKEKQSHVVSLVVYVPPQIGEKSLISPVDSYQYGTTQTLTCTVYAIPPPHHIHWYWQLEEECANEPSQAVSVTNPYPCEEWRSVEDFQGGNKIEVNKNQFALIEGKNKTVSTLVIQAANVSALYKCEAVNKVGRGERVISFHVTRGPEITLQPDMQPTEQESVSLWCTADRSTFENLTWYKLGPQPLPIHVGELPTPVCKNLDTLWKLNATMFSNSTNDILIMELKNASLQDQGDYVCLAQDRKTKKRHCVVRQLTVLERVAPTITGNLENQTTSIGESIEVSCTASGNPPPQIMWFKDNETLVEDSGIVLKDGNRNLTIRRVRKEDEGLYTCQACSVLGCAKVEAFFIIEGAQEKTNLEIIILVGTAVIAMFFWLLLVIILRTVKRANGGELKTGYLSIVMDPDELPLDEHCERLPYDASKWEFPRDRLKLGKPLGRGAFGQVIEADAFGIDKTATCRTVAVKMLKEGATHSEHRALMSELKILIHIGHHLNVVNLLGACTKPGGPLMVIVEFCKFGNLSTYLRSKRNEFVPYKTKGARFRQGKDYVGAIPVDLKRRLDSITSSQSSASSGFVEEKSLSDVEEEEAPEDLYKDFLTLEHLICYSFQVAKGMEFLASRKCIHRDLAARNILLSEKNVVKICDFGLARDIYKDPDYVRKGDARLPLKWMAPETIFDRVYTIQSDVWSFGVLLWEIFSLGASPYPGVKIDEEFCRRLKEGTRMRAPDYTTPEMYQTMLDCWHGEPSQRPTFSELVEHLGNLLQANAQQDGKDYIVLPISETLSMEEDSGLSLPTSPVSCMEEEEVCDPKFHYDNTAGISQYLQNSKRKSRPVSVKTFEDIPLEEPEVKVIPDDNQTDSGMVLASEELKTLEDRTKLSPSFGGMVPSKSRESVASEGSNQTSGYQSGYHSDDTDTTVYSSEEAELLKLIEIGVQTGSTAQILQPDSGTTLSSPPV", "assay_type": "functional"}, "Aurora kinase B": {"target": "Aurora kinase B (Homo sapiens, UniProt Q96GD4)", "sequence (Q96GD4 whole entry)": "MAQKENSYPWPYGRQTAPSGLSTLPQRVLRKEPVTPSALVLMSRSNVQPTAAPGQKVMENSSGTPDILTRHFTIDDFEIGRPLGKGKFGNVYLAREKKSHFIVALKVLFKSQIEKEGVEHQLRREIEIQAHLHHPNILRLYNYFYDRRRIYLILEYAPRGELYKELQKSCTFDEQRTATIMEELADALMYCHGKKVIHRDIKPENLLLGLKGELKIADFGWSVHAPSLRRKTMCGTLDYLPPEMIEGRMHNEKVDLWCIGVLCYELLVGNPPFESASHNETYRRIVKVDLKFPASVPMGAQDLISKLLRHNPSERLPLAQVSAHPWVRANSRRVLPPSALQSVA", "assay_type": "functional"}, "[3]": {"target": "T2, Sentrin-specific protease 8 (Homo sapiens, UniProt Q96LD8)", "T2 sequence (Q96LD8 whole entry)": "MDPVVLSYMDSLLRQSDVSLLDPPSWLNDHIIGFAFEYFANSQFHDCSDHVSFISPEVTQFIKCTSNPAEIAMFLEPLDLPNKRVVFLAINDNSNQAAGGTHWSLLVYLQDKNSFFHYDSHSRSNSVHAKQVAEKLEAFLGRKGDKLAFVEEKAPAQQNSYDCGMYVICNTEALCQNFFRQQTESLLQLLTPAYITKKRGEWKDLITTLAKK", "assay": "inhibition of human SENP8 cleavage activity – biochemical, luminescence, SAR follow-up (AID 504501)", "assay_type": "functional"}, "Caspase-3": {"target": "T3, Caspase-3 (Homo sapiens, UniProt P42574)", "T3 sequence (P42574 whole entry)": "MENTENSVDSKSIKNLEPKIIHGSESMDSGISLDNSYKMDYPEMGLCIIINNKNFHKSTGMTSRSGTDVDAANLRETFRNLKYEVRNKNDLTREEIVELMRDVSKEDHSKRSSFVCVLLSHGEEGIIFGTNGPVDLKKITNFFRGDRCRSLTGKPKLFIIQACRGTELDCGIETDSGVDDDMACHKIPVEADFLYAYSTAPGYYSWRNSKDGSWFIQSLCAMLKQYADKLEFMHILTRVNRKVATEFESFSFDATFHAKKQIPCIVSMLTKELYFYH", "assay": "SAR Analysis of small molecule inhibitors of Sentrin-specific proteases (SENPs) using a Caspase-3 Selectivity assay. [Related pubchem assays (depositor defined):AID2540, AID2599, AID434973, AID489001]", "assay_type": "functional"}, "[4]": {"target": "T4, Sentrin-specific protease 6 (Homo sapiens, UniProt Q9GZR1)", "T4 sequence (Q9GZR1 whole entry)": "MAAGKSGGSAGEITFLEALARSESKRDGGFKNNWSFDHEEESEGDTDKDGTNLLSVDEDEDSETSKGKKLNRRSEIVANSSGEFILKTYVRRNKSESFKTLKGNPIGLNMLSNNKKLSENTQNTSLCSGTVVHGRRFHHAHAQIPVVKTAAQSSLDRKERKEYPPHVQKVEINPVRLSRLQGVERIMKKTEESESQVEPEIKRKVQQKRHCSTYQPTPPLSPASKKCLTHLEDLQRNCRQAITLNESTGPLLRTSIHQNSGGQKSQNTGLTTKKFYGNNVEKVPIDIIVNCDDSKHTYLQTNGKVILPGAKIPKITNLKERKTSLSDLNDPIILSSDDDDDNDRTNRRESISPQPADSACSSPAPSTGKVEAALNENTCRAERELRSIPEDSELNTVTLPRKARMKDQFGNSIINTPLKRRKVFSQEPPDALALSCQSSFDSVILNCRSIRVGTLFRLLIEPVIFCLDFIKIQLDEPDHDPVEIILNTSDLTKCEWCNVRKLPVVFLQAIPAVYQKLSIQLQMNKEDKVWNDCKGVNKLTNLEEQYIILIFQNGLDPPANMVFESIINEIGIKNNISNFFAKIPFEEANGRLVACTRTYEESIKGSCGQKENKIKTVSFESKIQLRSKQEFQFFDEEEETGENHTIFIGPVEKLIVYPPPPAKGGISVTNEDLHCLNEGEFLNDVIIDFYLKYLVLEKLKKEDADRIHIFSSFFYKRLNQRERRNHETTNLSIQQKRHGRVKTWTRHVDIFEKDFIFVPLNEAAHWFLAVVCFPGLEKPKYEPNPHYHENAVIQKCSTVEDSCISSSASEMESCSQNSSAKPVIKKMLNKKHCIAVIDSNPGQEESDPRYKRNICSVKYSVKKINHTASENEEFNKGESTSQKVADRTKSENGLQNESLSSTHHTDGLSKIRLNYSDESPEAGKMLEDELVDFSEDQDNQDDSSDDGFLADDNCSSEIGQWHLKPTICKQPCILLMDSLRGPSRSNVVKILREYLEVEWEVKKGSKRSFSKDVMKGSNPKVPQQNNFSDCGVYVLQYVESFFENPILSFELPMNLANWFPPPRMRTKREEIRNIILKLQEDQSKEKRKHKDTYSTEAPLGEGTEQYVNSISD", "assay": "SAR Analysis of small molecule inhibitors of Sentrin-specific protease 6 (SENP6) using a Luminescent assay. [Related pubchem assays (depositor defined):AID2582, AID2599]", "assay_type": "functional"}, "[5]": {"target": "T5, Sentrin-specific protease 7 (Homo sapiens, UniProt Q9BQF6)", "T5 sequence (Q9BQF6 whole entry)": "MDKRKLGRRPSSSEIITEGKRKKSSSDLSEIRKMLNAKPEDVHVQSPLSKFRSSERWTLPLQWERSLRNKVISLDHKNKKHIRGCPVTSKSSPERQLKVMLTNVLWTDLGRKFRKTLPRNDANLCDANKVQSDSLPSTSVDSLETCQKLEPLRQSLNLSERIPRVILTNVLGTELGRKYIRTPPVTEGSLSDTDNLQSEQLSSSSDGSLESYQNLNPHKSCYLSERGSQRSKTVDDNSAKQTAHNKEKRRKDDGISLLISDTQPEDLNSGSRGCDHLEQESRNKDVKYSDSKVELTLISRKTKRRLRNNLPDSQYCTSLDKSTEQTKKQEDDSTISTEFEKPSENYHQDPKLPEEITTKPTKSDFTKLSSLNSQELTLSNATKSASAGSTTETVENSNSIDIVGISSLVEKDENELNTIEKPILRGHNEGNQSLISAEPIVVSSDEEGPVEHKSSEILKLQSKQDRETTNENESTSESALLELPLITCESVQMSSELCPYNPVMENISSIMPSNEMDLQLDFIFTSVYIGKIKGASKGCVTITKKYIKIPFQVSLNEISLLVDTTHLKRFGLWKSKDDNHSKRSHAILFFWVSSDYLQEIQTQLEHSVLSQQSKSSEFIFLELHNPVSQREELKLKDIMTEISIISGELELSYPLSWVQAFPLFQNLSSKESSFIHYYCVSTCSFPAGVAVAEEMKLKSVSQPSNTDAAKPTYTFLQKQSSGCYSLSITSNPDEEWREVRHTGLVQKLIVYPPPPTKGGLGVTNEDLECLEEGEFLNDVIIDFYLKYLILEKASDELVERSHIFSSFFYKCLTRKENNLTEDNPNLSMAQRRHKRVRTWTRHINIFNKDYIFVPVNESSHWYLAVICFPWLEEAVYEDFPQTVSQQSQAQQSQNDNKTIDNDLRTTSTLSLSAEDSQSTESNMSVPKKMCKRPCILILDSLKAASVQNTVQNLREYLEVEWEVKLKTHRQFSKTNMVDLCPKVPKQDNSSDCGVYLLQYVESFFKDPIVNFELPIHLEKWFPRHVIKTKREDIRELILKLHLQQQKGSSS", "assay": "inhibition of human SENP7 cleavage activity – biochemical, luminescence, SAR follow-up (AID 504497)", "assay_type": "functional"}, "H9c2": {"system": "H9c2", "assay": "cells", "assay_type": "functional, cell-based", "settings": "Rattus norvegicus, H9c2, Myocardium"}, "[6]": {"assay": "THP-1 cell cytotoxicity, cytotoxicity control, set 4 (AID 504911)", "assay_type": "functional", "settings": "Mycobacterium tuberculosis"}}, "note": "Calls of active or inactive are those of the source.", "data": [{"compound": "CCOC(=O)C1CCc2[nH]c3ccc(OC)cc3c2C1", "note": "(configuration not stated);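 on EC50 Mean: caspase-3 cleavage of fluorogenic Rh110 DEVD substrate downstream of apoptosome activation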", "values": [{"measurement": "EC50", "setting": "[1]", "value": "> 100 µM (inactive)"}]}, {"compound": "O=C(Nc1ccc(-n2cnc3ccccc32)cc1)Nc1cccc(C(F)(F)F)c1", "values": [{"measurement": "Ki", "setting": "Aurora kinase A", "value": "501 nM (active)"}, {"measurement": "Ki", "setting": "[2]", "value": "3.16 nM (active)"}, {"measurement": "Ki", "setting": "Aurora kinase B", "value": "2.51 nM (active)"}]}, {"compound": "C(=N\\Nc1cc(N2CCCC2)nc(N2CCCC2)n1)/c1ccccc1", "values": [{"measurement": "IC50", "setting": "[3]", "value": "> 99 µM (inactive)"}, {"measurement": "IC50", "setting": "Caspase-3", "value": "> 99 µM (inactive)"}, {"measurement": "IC50", "setting": "[4]", "value": "15.1 µM (active)"}, {"measurement": "IC50", "setting": "[5]", "value": "89.9 µM (active)"}]}, {"compound": "NC(=NO)c1cccc(S(=O)(=O)Nc2ccc3c(c2)C(=NO)c2ccccc2-3)c1", "values": [{"measurement": "Ki", "setting": "Aurora kinase A", "value": "1000 nM (active)"}, {"measurement": "Ki", "setting": "[2]", "value": "> 5010 nM (inactive)"}, {"measurement": "Ki", "setting": "Aurora kinase B", "value": "20 nM (active)"}]}, {"compound": "N#Cc1ccc(-c2nc(/C=C/c3ccccc3)no2)cc1", "values": [{"measurement": "IC50", "setting": "[3]", "value": "> 99 µM (inactive)"}, {"measurement": "IC50", "setting": "Caspase-3", "value": "> 99 µM (inactive)"}, {"measurement": "IC50", "setting": "[4]", "value": "> 99 µM (inactive)"}, {"measurement": "IC50", "setting": "[5]", "value": "> 99 µM (inactive)"}]}, {"compound": "O=C(CSc1nc(O)c2ccccc2n1)N1CCOCC1", "values": [{"measurement": "IC50", "setting": "H9c2", "value": "25.9 µM (active)"}, {"measurement": "CC50", "setting": "[6]", "value": "> 100 µM (active)"}]}]}
